# From PubChem BioAssay AID1963846 (Molecular Pharmacology Branch, DTP, NCI, 2024)
# Test system: 454973-116-R2-J3-PDC complex spheroid viability
# Experiment: Anticancer human tumor 454973-116-R2-J3-PDC patient-derived pancreatic carcinoma cell line growth inhibition [POLQ]
# Details: for IC50: curve of first compound; for viability, T/C: stronger effect = lower value
# Method in brief: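 Three-cell-type spheroids modelling solid tumor plus stroma served as the readout system; POL inhibitors were tested individually and in combination, concentration ranges set by clinical Cmax where known.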
# [1] = second compound 0.0316 µM, first compound 0.0316 µM
# [2] = second compound 0.0316 µM, first compound 0.1 µM
# [3] = second compound 0.0316 µM, first compound 0.316 µM
# [4] = second compound 0.0316 µM, first compound 1 µM
# [5] = second compound 0.1 µM, first compound 0.0316 µM
# [6] = second compound 0.1 µM, first compound 0.1 µM
# [7] = second compound 0.1 µM, first compound 0.316 µM
# [8] = second compound 0.1 µM, first compound 1 µM
# [9] = second compound 0.316 µM, first compound 0.0316 µM
# [10] = second compound 0.316 µM, first compound 0.1 µM
# [11] = second compound 0.316 µM, first compound 0.316 µM
# [12] = second compound 0.316 µM, first compound 1 µM
# [13] = second compound 1 µM, first compound 0.0316 µM
# [14] = second compound 1 µM, first compound 0.1 µM
# [15] = second compound 1 µM, first compound 0.316 µM
# [16] = second compound 1 µM, first compound 1 µM
# [17] = second compound 3.16 µM, first compound 0.0316 µM
# [18] = second compound 3.16 µM, first compound 0.1 µM
# [19] = second compound 3.16 µM, first compound 0.316 µM
# [20] = second compound 3.16 µM, first compound 1 µM
# [21] = second compound 10 µM, first compound 0.0316 µM
# [22] = second compound 10 µM, first compound 0.1 µM
# [23] = second compound 10 µM, first compound 0.316 µM
# [24] = second compound 10 µM, first compound 1 µM
# 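Further: spheroids exposed to drugs for seven days before measurement.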
# 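Wherever viability, T/C is given: percent viability relative to DMSO vehicle control wells taken as 100%.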
structure (smiles),measurement,setting,value
COc1cccc(OCCCN)c1-c1cc(Nc2cnc(C#N)cn2)n[nH]1 + COC1C(OC(N)=O)C(O)C(Oc2ccc3c(O)c(NC(=O)c4ccc(O)c(CC=C(C)C)c4)c(=O)oc3c2C)OC1(C)C,IC50,second compound 0.0316 µM,16.9 nM
same,IC50,second compound 0.1 µM,16.5 nM
same,IC50,second compound 0.316 µM,15.2 nM
same,IC50,second compound 1 µM,15.5 nM
same,IC50,second compound 3.16 µM,15.8 nM
same,IC50,second compound 10 µM,15.1 nM
same,"viability, T/C","second compound 0.0316 µM, first compound 0.00316 µM",103%
same,"viability, T/C","second compound 0.0316 µM, first compound 0.01 µM",78%
same,"viability, T/C",[1],16.5%
same,"viability, T/C",[2],5.78%
same,"viability, T/C",[3],6.6%
same,"viability, T/C",[4],5.48%
same,"viability, T/C","second compound 0.1 µM, first compound 0.00316 µM",103%
same,"viability, T/C","second compound 0.1 µM, first compound 0.01 µM",78.8%
same,"viability, T/C",[5],12.9%
same,"viability, T/C",[6],5.6%
same,"viability, T/C",[7],5.16%
same,"viability, T/C",[8],6.37%
same,"viability, T/C","second compound 0.316 µM, first compound 0.00316 µM",95.6%
same,"viability, T/C","second compound 0.316 µM, first compound 0.01 µM",70.8%
same,"viability, T/C",[9],13.3%
same,"viability, T/C",[10],5.72%
same,"viability, T/C",[11],3.83%
same,"viability, T/C",[12],4.13%
same,"viability, T/C","second compound 1 µM, first compound 0.00316 µM",97%
same,"viability, T/C","second compound 1 µM, first compound 0.01 µM",73.2%
same,"viability, T/C",[13],12.2%
same,"viability, T/C",[14],6.82%
same,"viability, T/C",[15],5.97%
same,"viability, T/C",[16],5.82%
same,"viability, T/C","second compound 3.16 µM, first compound 0.00316 µM",107%
same,"viability, T/C","second compound 3.16 µM, first compound 0.01 µM",75.5%
same,"viability, T/C",[17],11%
same,"viability, T/C",[18],7.17%
same,"viability, T/C",[19],6.78%
same,"viability, T/C",[20],5.38%
same,"viability, T/C","second compound 10 µM, first compound 0.00316 µM",104%
same,"viability, T/C","second compound 10 µM, first compound 0.01 µM",68%
same,"viability, T/C",[21],17.8%
same,"viability, T/C",[22],6.01%
same,"viability, T/C",[23],7.28%
same,"viability, T/C",[24],7.27%
CC1COCCN1c1cc(C2(S(C)(=N)=O)CC2)nc(-c2ccnc3[nH]ccc23)n1 (centres undefined) + Cc1cccc(N(C)C(=O)C2C(O)CCN2c2nc(C)cc(C(F)(F)F)c2C#N)c1,IC50,second compound 0.0316 µM,6390 nM
same,IC50,second compound 0.1 µM,6900 nM
same,IC50,second compound 0.316 µM,5750 nM
same,IC50,second compound 1 µM,5920 nM
same,IC50,second compound 3.16 µM,6600 nM
same,IC50,second compound 10 µM,5900 nM
same,"viability, T/C",[1],111%
same,"viability, T/C",[2],105%
same,"viability, T/C",[3],103%
same,"viability, T/C",[4],108%
same,"viability, T/C","second compound 0.0316 µM, first compound 3.16 µM",85.2%
same,"viability, T/C","second compound 0.0316 µM, first compound 10 µM",27.4%
same,"viability, T/C",[5],111%
same,"viability, T/C",[6],116%
same,"viability, T/C",[7],105%
same,"viability, T/C",[8],104%
same,"viability, T/C","second compound 0.1 µM, first compound 3.16 µM",75.2%
same,"viability, T/C","second compound 0.1 µM, first compound 10 µM",37.9%
same,"viability, T/C",[9],104%
same,"viability, T/C",[10],107%
same,"viability, T/C",[11],111%
same,"viability, T/C",[12],110%
same,"viability, T/C","second compound 0.316 µM, first compound 3.16 µM",72.4%
same,"viability, T/C","second compound 0.316 µM, first compound 10 µM",29.4%
same,"viability, T/C",[13],111%
same,"viability, T/C",[14],113%
same,"viability, T/C",[15],114%
same,"viability, T/C",[16],109%
same,"viability, T/C","second compound 1 µM, first compound 3.16 µM",75%
same,"viability, T/C","second compound 1 µM, first compound 10 µM",29.1%
same,"viability, T/C",[17],117%
same,"viability, T/C",[18],112%
same,"viability, T/C",[19],113%
same,"viability, T/C",[20],96.3%
same,"viability, T/C","second compound 3.16 µM, first compound 3.16 µM",80.8%
same,"viability, T/C","second compound 3.16 µM, first compound 10 µM",33%
same,"viability, T/C",[21],114%
same,"viability, T/C",[22],112%
same,"viability, T/C",[23],106%
same,"viability, T/C",[24],102%
same,"viability, T/C","second compound 10 µM, first compound 3.16 µM",74.6%
same,"viability, T/C","second compound 10 µM, first compound 10 µM",28.8%
